Source: patent US4620014A, “2-furylbutyrolactones and methods for using same” (priority 1983, dated 1986)
Where two headings read alike, the source gives them in different places.

How the values were obtained:
[1] = tested on: antibody response to bovine serum albumin (BSA); conditions: for stimulation of antibody response to BSA: day 13
Excerpt: The effect of the compounds of this invention on the immune response to specific antigens involves immunization of mice with specific anitgens such as bovine serum albumin (BSA) or keyhole limpet hemocyanin (KLH). Following immunization, it is possible to assess the cell-mediated or humoral (antibody) immune response to these antigens by various methods:
(2) Antibody response to soluble antigens such as BSA or KLH can be quantitated using a micro-ELISA solid phase heterogeneous immunoassay. The assay can be designed to quantitate class specific immunoglobulins (i.e., IgG or IgM).
The cut-off for the titer was the highest dilution of mouse serum yielding an O.D.≤0.1 when read on the MR-600 Dynatech micro-ELISA reader.
Mice of the C57BL/6 strain are given i.p. injections of either 50, 100, 200 or 400 mg/kg of Cpd. 1 or buffer for twelve days (days 1-12). An antigen, bovine serum albumin (BSA), is administered intraperitoneally with Freund's Complete Adjuvant (FCA) on days 1, 7 and 14. Blood samples are taken for assay of the antibody response on days 0, 5, 13, and 19.

[2] = tested on: spleen lymphocytes of BALB/C mice; conditions: 4 days
Procedure: (§1) The purpose of this assay is to challenge lymphocytes in microcultures with one or more polyclonal mitogens at concentrations that will induce mitogenesis within 72 hours of stimulation.
In the mouse model, spleens are removed from different strains of mice and the spleen cells are teased free and suspended in RPMI-1640 tissue culture medium at a concentration of usually 1×10^7 ml. These cells are dispensed at a concentration of 5.0×10^5 cells per microculture well in a 96 well flat bottom 96 well tissue culture plate. All testing of the compounds of this invention or mitogens are done in replicates of 10. The cells are then treated with PHA, Con-A, specific antigens, or buffer only. If in vitro testing is done, varying concentrations of the compounds of this invention or buffer only are added to the cells as well. After treatment with the mitogens and/or compounds of this invention, the cells are incubated for 72 hours. The response of these cells to mitogens and/or the compounds of this invention is assessed using ^14 C-thymidine labeling on the fourth day at a concentration of 0.01 μCi/well. The labeled cells are harvested using a lymphocyte harvestor and placed onto fibrous paper discs. […] The data is expressed as a ratio of the cpm of the mitogen stimulated group to the control (non-mitogen) treated group=lymphocyte stimulation index (LSI). […]

[3] = tested on: spleen lymphocytes of C57BL/6 mice; assay: In vivo treatment, lymphocyte stimulation assay, C57BL/6 mice
Procedure: as §1
In the mouse model, spleens are removed from different strains of mice and the spleen cells are teased free and suspended in RPMI-1640 tissue culture medium at a concentration of usually 1×10^7 ml. These cells are dispensed at a concentration of 5.0×10^5 cells per microculture well in a 96 well flat bottom 96 well tissue culture plate. All testing of the compounds of this invention or mitogens are done in replicates of 10. The cells are then treated with PHA, Con-A, specific antigens, or buffer only. If in vitro testing is done, varying concentrations of the compounds of this invention or buffer only are added to the cells as well. After treatment with the mitogens and/or compounds of this invention, the cells are incubated for 72 hours. The response of these cells to mitogens and/or the compounds of this invention is assessed using ^14 C-thymidine labeling on the fourth day at a concentration of 0.01 μCi/well. The labeled cells are harvested using a lymphocyte harvestor and placed onto fibrous paper discs. A scintillation cocktail is added to vials contaning the discs and the results are obtained using a LKB-liquid scintillation counter (Model 1216/Rackbeta II). The data is expressed as a ratio of the cpm of the mitogen stimulated group to the control (non-mitogen) treated group=lymphocyte stimulation index (LSI).
The lymphocyte stimulation assay may be performed directly on spleen cells obtained from various strains of mice not treated with the compounds of this invention or on lymphocytes obtained from […]. […] Alternatively, the mice may be treated in vivo with the compounds of this invention by intraperitoneal multi-dose schedules, followed by sacrifice and harvesting spleen lymphocytes. These cells are then tested for their response to polyclonal mitogens or specific antigens used to immunize the mice. In this sytem however, no additional compound is added to the in vitro lymphocyte stimulation assay system.
Two strains of mice, C57BL/6 and BDF1 are treated for seven days with i.p. administration of either 25, 50, 100, 200, or 400 mg/kg of Cpd. 1 or just buffer. This is followed on the eighth day by a lymphocyte stimulation assay.
A comparison is made of the lymphocyte response to C57BL/6 mice treated 4 days with i.p. administration of either 50, 100, 200, 400 or 800 mg/kg of Cpd. 1, 50, 100, 200, 400 or 800 mg/kg of ascorbic acid (AA), or just buffer. This is followed on the fifth day by a lymphocyte stimulation assay.
Two strains of mice, C57BL/6 and BALB/c, are treated 4 days with i.p. administration of either 50, 100, 200, or 400 mg/kg of Cpd. 1, or just buffer. This is followed on the fifth day by a lymphocyte stimulation assay.
C57BL/6 mice were treated with four daily i.p. doses of either 50, 100, 200, or 400 mg/kg of Cpd. 1 or just buffer. On the fifth day a lymphocyte stimulation assay was performed.
Mice of the C57BL/6 strain were tested with i.p. administration of either 100, 200, 400 or 600 mg/kg of Cpd. 1 or just buffer. This was followed by removal of spleens and treatment of lymphocytes therein with mitogens PHA and Con-A.
The compound of Example 2, Cpd. 2, was tested in vivo by using C57BL/6 mice and treating them with […] or just buffer for four consecutive days by the i.p. route. On the fifth day a lymphocyte stimulation assay was performed.

Cc1ccc(C2(O)C(=O)OC3C(O)COC32O)o1.Cc1ccc(C2(O)C(=O)OC3C(O)COC32O)o1.O=C1CCC(=O)O1 (centres unmarked) [Cpd. 1]
Micro-ELISA Titer ([1]; 50 mg/kg i.p., day 5): N/R
Micro-ELISA Titer ([1]; 50 mg/kg i.p., prebleed): N/R
antibody titer over the control ([1]; 50 mg/kg, day 19): slight increase
Micro-ELISA Titer ([1]; 100 mg/kg i.p., day 5): N/R
Micro-ELISA Titer ([1]; 100 mg/kg i.p., prebleed): N/R
Micro-ELISA Titer ([1]; 200 mg/kg i.p., day 5): N/R
Micro-ELISA Titer ([1]; 200 mg/kg i.p., prebleed): N/R
Micro-ELISA Titer ([1]; 400 mg/kg i.p., day 5): N/R
Micro-ELISA Titer ([1]; 400 mg/kg i.p., prebleed): N/R
stimulation of antibody response to BSA ([1]; 50 and 100 mg/kg): slight amount of stimulation
increase of antibody response to BSA over controls ([1]; 100 and 200 mg/kg, day 19): 16 fold
stimulation of antibody response to BSA ([1]; 200 and 400 mg/kg): significant (four-fold) stimulation
DNA synthesis of spleen cell lymphocytes ([2]; 400 mg/kg, compared to 200 mg/kg): suppress DNA synthesis
lymphocyte DNA synthesis, PHA and Con-A ([2]; 50, 100 and 200 mg/kg i.p.): tend to stimulate lymphocyte DNA synthesis
T-lymphocyte proliferation, PHA ([3]; 200 mg/kg i.p., 7 days): stimulation of T-lymphocyte proliferation
response to PHA ([3]; 400 mg/kg compared to 200 mg/kg, four daily doses): decrease in the response to PHA
PHA response ([3]; 400 mg/kg i.p., 7 days): strong suppression of the PHA response
Con-A response ([3]; 400 mg/kg i.p., 7 days, compared to 200 mg/kg): suppression of the Con-A response
DNA synthesis of spleen cell lymphocytes ([3]; 400 mg/kg, compared to 200 mg/kg, 4 days): suppress DNA synthesis
evidence of toxicity ([3]; 600 mg/kg i.p., five day administration): no evidence of toxicity
stimulation of lymphocytes ([3]; 600 mg/kg, compared to 100 to 400 mg/kg, five days): less stimulation
lymphocyte DNA synthesis, PHA and Con-A ([3]; 50, 100 and 200 mg/kg i.p., 4 days): tend to stimulate lymphocyte DNA synthesis
Con-A response ([3]; 50, 100 and 200 mg/kg i.p., 7 days): increased
response to polyclonal mitogens ([3]; 50-400 mg/kg i.p., four daily doses): Stimulation of the response to polyclonal mitogens
effect, Con-A ([3]; 50 to 200 mg/kg i.p., 4 days): significant stimulatory effect
lymphocyte DNA synthesis, PHA ([3]; 100 and 200 mg/kg i.p., 4 days): tend to stimulate lymphocyte DNA synthesis
Con-A and PHA treated lymphocytes ([3]; 100 to 400 mg/kg, five days): significant stimulation
DNA synthesis of spleen lymphocytes, PHA ([3]; 400 to 800 mg/kg i.p., 4 days): suppress DNA synthesis of spleen lymphocytes
effect, Con-A ([3]; 400 to 800 mg/kg i.p., 4 days): significant anti-proliferative effect
